PubChem BioAssay AID330 (DTP/NCI, 2004)
Where “and” joins values, the source holds several entries; their conditions need not be identical. Identical values can stand only once. Inconclusive results and toxic doses are left out. Rule for the calls: active = survival T/C of 150% or more; inactive = T/C below 125% in these data.

System: P388 leukemia ip, CD2F1 mice, survival T/C
Experiment: NCI In Vivo Anticancer Drug Screen. Data for tumor model P388 Leukemia (intraperitoneal) in CD2F1 (CDF1) mice
Details: endpoint: median survival time, higher = longer survival
How it was run: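 Mice carrying the transplanted tumor received test compound or vehicle. Survival was recorded in each group, and the value is the treated-group measurement divided by that of the vehicle-treated control group.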

[1] = dose: 25.0 mg/kg/injection, schedule: Q01DX009 (ip), vehicle: saline with Tween-80
[2] = dose: 50.0 mg/kg/injection, schedule: Q01DX009 (ip), vehicle: saline with Tween-80
[3] = dose: 50.0 mg/kg/injection, schedule: Q01DX009 (ip), vehicle: saline
[4] = dose: 100.0 mg/kg/injection, schedule: Q01DX009 (ip), vehicle: saline with Tween-80
[5] = dose: 60.0 mg/kg/injection, schedule: Q01DX005 (ip), vehicle: Klucel (hydroxypropylcellulose) (HPC)
[6] = dose: 120.0 mg/kg/injection, schedule: Q01DX005 (ip), vehicle: Klucel (hydroxypropylcellulose) (HPC)
[7] = dose: 240.0 mg/kg/injection, schedule: Q01DX005 (ip), vehicle: Klucel (hydroxypropylcellulose) (HPC)
[8] = dose: 50.0 mg/kg/injection, schedule: Q01DX009 (ip), vehicle: Klucel (hydroxypropylcellulose) (HPC)
[9] = dose: 100.0 mg/kg/injection, schedule: Q01DX009 (ip), vehicle: Klucel (hydroxypropylcellulose) (HPC)

Measured: T/C

COc1ccc(-n2c(-c3ccc(Cl)cc3)csc2=N)c(OC)c1
inactive: [1] 97 % of control | [2] 106 % of control | [3] 114 % of control | [4] 100 % of control | dose: 100.0 mg/kg/injection, schedule: Q01DX009 (ip), vehicle: saline 109 % of control

COC(=O)[C@@H]1[C@@H]2O[C@@H]2[C@H]2O[C@H]2[C@H]1C(=O)O
inactive: dose: 6.25 mg/kg/injection, schedule: Q01DX001 (ip), vehicle: Klucel (hydroxypropylcellulose) (HPC) 113 % of control | dose: 12.5 mg/kg/injection, schedule: Q01DX001 (ip), vehicle: Klucel (hydroxypropylcellulose) (HPC) 103 % of control | dose: 25.0 mg/kg/injection, schedule: Q01DX001 (ip), vehicle: Klucel (hydroxypropylcellulose) (HPC) 100 % of control | dose: 50.0 mg/kg/injection, schedule: Q01DX001 (ip), vehicle: Klucel (hydroxypropylcellulose) (HPC) 99 % of control

C=C=C(COC(C)=O)ON1CCC(C)CC1
inactive: dose: 9.0 mg/kg/injection, schedule: Q01DX001 (ip), vehicle: saline 102 % of control | dose: 18.12 mg/kg/injection, schedule: Q01DX001 (ip), vehicle: saline 102 % of control | dose: 36.25 mg/kg/injection, schedule: Q01DX001 (ip), vehicle: saline 100 % of control

O=C(NCc1ccccc1)N1CCN(c2ccccc2)C1=O
inactive: [1] 103 % of control and 88 % of control | [2] 98 % of control and 89 % of control and 96 % of control | [4] 97 % of control | dose: 200.0 mg/kg/injection, schedule: Q01DX009 (ip), vehicle: saline with Tween-80 98 % of control and 89 % of control and 93 % of control

CCCCN(CCCC)C(=N)c1ccnc2ccccc12
inactive: dose: 6.25 mg/kg/injection, schedule: Q01DX005 (ip), vehicle: saline 95 % of control | dose: 12.5 mg/kg/injection, schedule: Q01DX005 (ip), vehicle: saline 97 % of control | dose: 25.0 mg/kg/injection, schedule: Q01DX005 (ip), vehicle: saline 97 % of control

CCCCCCCCCCCCCCCC(=O)NC1CC(OC2CC(O)(C(C)=O)Cc3c(O)c4c(c(O)c32)C(=O)c2c(OC)cccc2C4=O)OC(C)C1O (configuration not stated)
inactive: dose: 0.75 mg/kg/injection, schedule: Q01DX009 (ip), vehicle: other 111 % of control | dose: 1.5 mg/kg/injection, schedule: Q01DX009 (ip), vehicle: other 98 % of control | dose: 3.0 mg/kg/injection, schedule: Q01DX009 (ip), vehicle: other 113 % of control

CCCCCCCCCCCCCCCC(=O)N(CCCN(CC)CC)C(C)CCCN(CC)CC (configuration not stated)
inactive: dose: 0.38 mg/kg/injection, schedule: Q01DX009 (ip), vehicle: water 96 % of control | dose: 0.75 mg/kg/injection, schedule: Q01DX009 (ip), vehicle: water 98 % of control | dose: 1.5 mg/kg/injection, schedule: Q01DX009 (ip), vehicle: water 98 % of control | dose: 3.0 mg/kg/injection, schedule: Q01DX009 (ip), vehicle: water 95 % of control | dose: 6.0 mg/kg/injection, schedule: Q01DX009 (ip), vehicle: water 92 % of control

[Cl][Eu]([Cl])[Cl]
inactive: [3] 89 % of control

CCc1cccc(CC)c1N1CC(C(=O)O)CC1=O (configuration not stated)
inactive: [5] 107 % of control | [6] 101 % of control | [7] 101 % of control

COc1cc(C)c(OC)c(C/C=C(\C)CC2=C(CC(C)(C)O)C(=O)[C@]3(C)CCC[C@]3(C)C2)c1
inactive: dose: 5.0 mg/kg/injection, schedule: Q01DX005 (ip), vehicle: saline with Tween-80 105 % of control | dose: 10.0 mg/kg/injection, schedule: Q01DX005 (ip), vehicle: saline with Tween-80 94 % of control | dose: 20.0 mg/kg/injection, schedule: Q01DX005 (ip), vehicle: saline with Tween-80 94 % of control

Clc1cccc(N=Cc2ccc(C=Nc3cccc(Cl)c3)cc2)c1
inactive: [8] 94 % of control | [9] 98 % of control

O=C(/C=C/c1cccs1)c1ccc(O)c(C(=O)O)c1
inactive: [1] 96 % of control | [2] 105 % of control | [4] 103 % of control

CCN(CC)C1C2=C(CCCC2)OS(=O)(=O)C1c1ccccc1 (configuration not stated)
inactive: [5] 103 % of control | [6] 97 % of control | [7] 95 % of control

CC1(C)CCC2(C)N(c3ccccc3)C(=O)ON12 (configuration not stated)
inactive: dose: 50.0 mg/kg/injection, schedule: Q01DX005 (ip), vehicle: saline with Tween-80 102 % of control | dose: 100.0 mg/kg/injection, schedule: Q01DX005 (ip), vehicle: saline with Tween-80 100 % of control | dose: 200.0 mg/kg/injection, schedule: Q01DX005 (ip), vehicle: saline with Tween-80 99 % of control

Cn1ncc2c(NCc3ccccc3)ncnc21
inactive: dose: 6.25 mg/kg/injection, schedule: Q01DX009 (ip), vehicle: saline sonified 95 % of control | dose: 12.5 mg/kg/injection, schedule: Q01DX009 (ip), vehicle: saline sonified 95 % of control | dose: 25.0 mg/kg/injection, schedule: Q01DX009 (ip), vehicle: saline sonified 109 % of control | dose: 50.0 mg/kg/injection, schedule: Q04DX003 (ip), vehicle: saline with Tween-80 109 % of control | dose: 100.0 mg/kg/injection, schedule: Q04DX003 (ip), vehicle: saline with Tween-80 104 % of control | dose: 200.0 mg/kg/injection, schedule: Q04DX003 (ip), vehicle: saline with Tween-80 95 % of control

CCCCCCCCCCCC[As](CCCCCCCCCCCC)SCC1OC(OC(C)=O)C(OC(C)=O)C(OC(C)=O)C1OC(C)=O (configuration not stated)
inactive: [8] 111 % of control | [9] 104 % of control | dose: 200.0 mg/kg/injection, schedule: Q01DX009 (ip), vehicle: Klucel (hydroxypropylcellulose) (HPC) 105 % of control

COc1cc(C2C(C)=COc3cc4c(cc32)OCO4)cc(OC)c1OC (configuration not stated)
inactive: dose: 60.0 mg/kg/injection, schedule: Q01DX005 (ip), vehicle: saline with Tween-80 93 % of control | dose: 120.0 mg/kg/injection, schedule: Q01DX005 (ip), vehicle: saline with Tween-80 100 % of control | dose: 240.0 mg/kg/injection, schedule: Q01DX005 (ip), vehicle: saline with Tween-80 93 % of control

Oc1ccccc1N=Nc1ccccc1O.[O]=[V]
inactive: dose: 3.13 mg/kg/injection, schedule: Q01DX009 (ip), vehicle: Klucel (hydroxypropylcellulose) (HPC) 99 % of control | dose: 6.25 mg/kg/injection, schedule: Q01DX009 (ip), vehicle: Klucel (hydroxypropylcellulose) (HPC) 107 % of control and 112 % of control | dose: 12.5 mg/kg/injection, schedule: Q01DX009 (ip), vehicle: Klucel (hydroxypropylcellulose) (HPC) 100 % of control and 106 % of control | dose: 25.0 mg/kg/injection, schedule: Q01DX009 (ip), vehicle: Klucel (hydroxypropylcellulose) (HPC) 90 % of control

CN(CCCN(C)CCC1CCCCC1)CCC1CCCCC1
inactive: dose: 12.5 mg/kg/injection, schedule: Q01DX009 (ip), vehicle: saline with Tween-80 100 % of control | [1] 103 % of control | [2] 105 % of control

NC(N)=N/N=C/c1c2ccccc2cc2ccccc12
inactive: dose: 6.25 mg/kg/injection, schedule: Q01DX005 (ip), vehicle: saline with Tween-80 100 % of control and 101 % of control | dose: 12.5 mg/kg/injection, schedule: Q01DX005 (ip), vehicle: saline with Tween-80 107 % of control and 109 % of control and 121 % of control | dose: 25.0 mg/kg/injection, schedule: Q01DX005 (ip), vehicle: saline with Tween-80 104 % of control and 113 % of control and 121 % of control

N#C/C(N)=C(\C#N)N=Cc1ccc(-c2ccccc2)cc1
inactive: dose: 100.0 mg/kg/injection, schedule: Q01DX001 (ip), vehicle: saline with Tween-80 90 % of control | dose: 200.0 mg/kg/injection, schedule: Q01DX001 (ip), vehicle: saline with Tween-80 90 % of control | dose: 400.0 mg/kg/injection, schedule: Q01DX001 (ip), vehicle: saline with Tween-80 86 % of control

CCOC(=O)c1c(-c2ccc3c(c2)OCO3)[nH][nH]c1=O
inactive: dose: 100.0 mg/kg/injection, schedule: Q04DX002 (ip), vehicle: saline 101 % of control | dose: 200.0 mg/kg/injection, schedule: Q04DX002 (ip), vehicle: saline 99 % of control
